From the kinase profiling compilation of Christmann-Franck et al. (2016)

Assays:
Test in all cases: radiometric filter-binding kinase assay, Kinase HotSpot
Conditions in all cases: compound 0.5 µM; ATP 10 µM
[1] = target: PHKG1 (human) (UniProt Q16816)
[2] = target: FLT3 (human) (UniProt P36888)
[3] = target: CDK4 CCND3 (human) (UniProt P30281+P11802)
[4] = target: MELK (human) (UniProt Q14680)
[5] = target: RPS6KB2 (human) (UniProt Q9UBS0)
[6] = target: AURKB (human) (UniProt Q96GD4)
[7] = target: PKN1 (human) (UniProt Q16512)
[8] = target: AKT1 (human) (UniProt P31749)
[9] = target: CDK7 CCNH MNAT1 (human) (UniProt P50613+P51948+P51946)
[10] = target: ERBB4 (human) (UniProt Q15303)
[11] = target: CSNK1G3 (human) (UniProt Q9Y6M4)
[12] = target: MAP3K9 (human) (UniProt P80192)
[13] = target: WNK2 (human) (UniProt Q9Y3S1)
Chain of WNK2 (human) (Q9Y3S1 whole entry, looked up): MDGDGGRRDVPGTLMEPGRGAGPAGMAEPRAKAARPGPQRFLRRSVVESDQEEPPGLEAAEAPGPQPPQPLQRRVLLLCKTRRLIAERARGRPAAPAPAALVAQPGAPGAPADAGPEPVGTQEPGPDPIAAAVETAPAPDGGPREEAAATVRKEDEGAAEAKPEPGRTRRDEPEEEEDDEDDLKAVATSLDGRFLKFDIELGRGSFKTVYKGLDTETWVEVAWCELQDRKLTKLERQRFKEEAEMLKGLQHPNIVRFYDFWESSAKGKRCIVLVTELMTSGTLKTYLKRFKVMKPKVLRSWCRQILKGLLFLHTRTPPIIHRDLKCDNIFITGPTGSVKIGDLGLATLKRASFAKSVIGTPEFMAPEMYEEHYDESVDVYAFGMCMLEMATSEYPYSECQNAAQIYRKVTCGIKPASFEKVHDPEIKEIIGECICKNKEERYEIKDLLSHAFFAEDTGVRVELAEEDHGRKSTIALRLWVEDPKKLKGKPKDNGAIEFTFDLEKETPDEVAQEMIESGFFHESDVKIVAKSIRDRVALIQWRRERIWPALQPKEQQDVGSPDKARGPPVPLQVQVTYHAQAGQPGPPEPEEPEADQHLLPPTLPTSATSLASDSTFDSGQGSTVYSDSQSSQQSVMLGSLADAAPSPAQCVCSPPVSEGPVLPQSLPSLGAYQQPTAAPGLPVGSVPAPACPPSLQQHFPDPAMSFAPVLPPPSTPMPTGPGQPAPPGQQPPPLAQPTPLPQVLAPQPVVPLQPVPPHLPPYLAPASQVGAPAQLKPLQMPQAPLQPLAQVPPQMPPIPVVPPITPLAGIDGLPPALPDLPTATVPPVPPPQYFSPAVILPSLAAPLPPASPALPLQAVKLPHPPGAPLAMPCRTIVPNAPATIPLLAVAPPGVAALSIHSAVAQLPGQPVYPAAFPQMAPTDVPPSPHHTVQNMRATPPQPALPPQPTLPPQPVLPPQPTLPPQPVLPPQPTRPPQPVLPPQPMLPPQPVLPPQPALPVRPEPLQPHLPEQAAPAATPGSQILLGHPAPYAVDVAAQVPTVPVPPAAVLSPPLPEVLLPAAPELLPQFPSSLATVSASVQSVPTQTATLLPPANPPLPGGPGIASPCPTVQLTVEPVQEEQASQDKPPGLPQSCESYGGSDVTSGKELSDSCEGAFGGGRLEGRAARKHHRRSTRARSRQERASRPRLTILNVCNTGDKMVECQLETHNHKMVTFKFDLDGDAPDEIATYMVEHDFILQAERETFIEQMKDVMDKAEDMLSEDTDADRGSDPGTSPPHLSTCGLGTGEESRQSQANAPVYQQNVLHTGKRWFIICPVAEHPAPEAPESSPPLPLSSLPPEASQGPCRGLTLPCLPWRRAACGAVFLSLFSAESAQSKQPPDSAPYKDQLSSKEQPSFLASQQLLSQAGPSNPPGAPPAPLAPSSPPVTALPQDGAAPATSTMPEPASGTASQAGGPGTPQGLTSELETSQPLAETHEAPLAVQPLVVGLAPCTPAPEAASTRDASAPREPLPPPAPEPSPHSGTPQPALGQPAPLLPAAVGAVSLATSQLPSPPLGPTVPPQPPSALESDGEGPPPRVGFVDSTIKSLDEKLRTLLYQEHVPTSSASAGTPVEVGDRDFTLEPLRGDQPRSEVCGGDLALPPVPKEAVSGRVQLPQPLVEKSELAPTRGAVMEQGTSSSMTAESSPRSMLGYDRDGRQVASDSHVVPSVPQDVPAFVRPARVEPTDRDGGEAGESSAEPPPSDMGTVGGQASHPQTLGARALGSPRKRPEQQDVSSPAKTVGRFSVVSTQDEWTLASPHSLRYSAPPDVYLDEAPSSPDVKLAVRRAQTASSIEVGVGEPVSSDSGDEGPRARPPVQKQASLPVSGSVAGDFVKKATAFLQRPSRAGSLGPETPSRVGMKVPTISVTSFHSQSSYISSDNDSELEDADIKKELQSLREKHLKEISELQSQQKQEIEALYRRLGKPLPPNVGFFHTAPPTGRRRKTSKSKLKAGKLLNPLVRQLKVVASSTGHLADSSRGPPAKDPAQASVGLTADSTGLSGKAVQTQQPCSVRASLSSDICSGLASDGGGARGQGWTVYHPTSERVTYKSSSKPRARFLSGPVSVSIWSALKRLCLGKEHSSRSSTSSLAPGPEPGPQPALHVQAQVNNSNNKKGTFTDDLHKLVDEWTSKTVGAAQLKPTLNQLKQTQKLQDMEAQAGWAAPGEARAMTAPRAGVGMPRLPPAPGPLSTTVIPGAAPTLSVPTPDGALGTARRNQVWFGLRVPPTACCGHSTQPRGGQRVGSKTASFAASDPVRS

[14] = target: DYRK4 (human) (UniProt Q9NR20)
[15] = target: MAPK9 (human) (UniProt P45984)
[16] = target: MYLK2 (human) (UniProt Q9H1R3)
[17] = target: EPHB1 (human) (UniProt P54762)
[18] = test system: PRKCQ (human), Q04759 [P330L]
[19] = target: INSR (human) (UniProt P06213)
[20] = target: MAP3K10 (human) (UniProt Q02779)
[21] = target: INSRR (human) (UniProt P14616)
[22] = target: PIM1 (human) (UniProt P11309)
Chain of PIM1 (human) (P11309 whole entry, looked up): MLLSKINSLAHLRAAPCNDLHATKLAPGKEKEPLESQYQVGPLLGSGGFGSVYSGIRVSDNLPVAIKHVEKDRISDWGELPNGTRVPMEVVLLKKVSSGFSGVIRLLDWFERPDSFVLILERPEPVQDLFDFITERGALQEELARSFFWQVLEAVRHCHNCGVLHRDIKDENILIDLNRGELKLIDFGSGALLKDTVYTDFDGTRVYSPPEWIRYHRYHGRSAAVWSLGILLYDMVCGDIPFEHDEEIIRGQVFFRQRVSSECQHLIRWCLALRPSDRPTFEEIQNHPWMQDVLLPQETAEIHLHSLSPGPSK

[23] = target: STK11 (human) (UniProt Q15831)
[24] = target: DCLK2 (human) (UniProt Q8N568)
[25] = target: ROCK2 (human) (UniProt O75116)
Chain of ROCK2 (human) (O75116 whole entry, looked up): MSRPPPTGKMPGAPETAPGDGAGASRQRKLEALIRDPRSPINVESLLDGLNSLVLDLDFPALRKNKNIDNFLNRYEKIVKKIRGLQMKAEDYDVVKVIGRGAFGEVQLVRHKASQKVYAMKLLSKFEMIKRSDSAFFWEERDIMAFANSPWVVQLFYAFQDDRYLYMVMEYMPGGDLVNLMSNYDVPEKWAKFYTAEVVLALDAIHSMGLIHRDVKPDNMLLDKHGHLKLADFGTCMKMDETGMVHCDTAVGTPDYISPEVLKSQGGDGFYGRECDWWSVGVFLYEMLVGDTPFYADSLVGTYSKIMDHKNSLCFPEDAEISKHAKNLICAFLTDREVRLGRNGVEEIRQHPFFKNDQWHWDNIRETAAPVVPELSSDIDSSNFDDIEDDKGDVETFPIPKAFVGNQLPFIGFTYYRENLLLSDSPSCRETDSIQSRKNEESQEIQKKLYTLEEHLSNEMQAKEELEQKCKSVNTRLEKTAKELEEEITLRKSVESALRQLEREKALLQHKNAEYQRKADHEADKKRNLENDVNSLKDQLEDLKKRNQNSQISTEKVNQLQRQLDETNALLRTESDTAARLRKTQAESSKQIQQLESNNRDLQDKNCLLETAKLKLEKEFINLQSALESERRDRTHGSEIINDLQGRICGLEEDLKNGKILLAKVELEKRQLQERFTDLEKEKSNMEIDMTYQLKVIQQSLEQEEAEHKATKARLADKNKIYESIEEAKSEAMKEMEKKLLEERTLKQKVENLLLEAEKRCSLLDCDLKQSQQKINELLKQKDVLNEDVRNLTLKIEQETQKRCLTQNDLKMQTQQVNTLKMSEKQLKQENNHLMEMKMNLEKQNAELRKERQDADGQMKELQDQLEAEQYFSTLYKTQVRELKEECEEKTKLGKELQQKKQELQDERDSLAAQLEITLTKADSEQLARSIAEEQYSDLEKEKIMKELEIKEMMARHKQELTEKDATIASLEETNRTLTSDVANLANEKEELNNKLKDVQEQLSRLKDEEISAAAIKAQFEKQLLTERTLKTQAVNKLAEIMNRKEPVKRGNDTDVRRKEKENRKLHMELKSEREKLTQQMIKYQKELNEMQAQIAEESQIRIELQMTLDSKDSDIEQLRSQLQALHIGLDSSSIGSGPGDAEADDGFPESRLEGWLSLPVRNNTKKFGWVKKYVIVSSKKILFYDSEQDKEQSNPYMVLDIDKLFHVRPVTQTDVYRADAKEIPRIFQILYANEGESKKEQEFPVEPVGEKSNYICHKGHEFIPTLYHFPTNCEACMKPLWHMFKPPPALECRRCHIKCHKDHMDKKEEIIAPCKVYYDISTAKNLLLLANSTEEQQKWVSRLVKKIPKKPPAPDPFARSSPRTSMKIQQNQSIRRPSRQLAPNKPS

[26] = target: TYK2 JH1 catalytic (human) (UniProt P29597)
[27] = test system: MKNK1 (human), Q9BUB5 [T385D; 165-205 del]
[28] = target: MERTK (human) (UniProt Q12866)
[29] = target: RIPK2 (human) (UniProt O43353)
[30] = target: TSSK2 (human) (UniProt Q96PF2)
[31] = target: SRC (human) (UniProt P12931)
[32] = target: CLK2 (human) (UniProt P49760)
[33] = target: FGFR4 (human) (UniProt P22455)
[34] = target: FYN (human) (UniProt P06241)
[35] = target: CSNK1E (human) (UniProt P49674)
[36] = target: GRK5 (human) (UniProt P34947)
[37] = target: KDR (human) (UniProt P35968)
[38] = target: DAPK1 (human) (UniProt P53355)
[39] = target: RPS6KA4 KD2 (human) (UniProt O75676)
[40] = target: BLK (human) (UniProt P51451)
Chain of BLK (human) (P51451 whole entry, looked up): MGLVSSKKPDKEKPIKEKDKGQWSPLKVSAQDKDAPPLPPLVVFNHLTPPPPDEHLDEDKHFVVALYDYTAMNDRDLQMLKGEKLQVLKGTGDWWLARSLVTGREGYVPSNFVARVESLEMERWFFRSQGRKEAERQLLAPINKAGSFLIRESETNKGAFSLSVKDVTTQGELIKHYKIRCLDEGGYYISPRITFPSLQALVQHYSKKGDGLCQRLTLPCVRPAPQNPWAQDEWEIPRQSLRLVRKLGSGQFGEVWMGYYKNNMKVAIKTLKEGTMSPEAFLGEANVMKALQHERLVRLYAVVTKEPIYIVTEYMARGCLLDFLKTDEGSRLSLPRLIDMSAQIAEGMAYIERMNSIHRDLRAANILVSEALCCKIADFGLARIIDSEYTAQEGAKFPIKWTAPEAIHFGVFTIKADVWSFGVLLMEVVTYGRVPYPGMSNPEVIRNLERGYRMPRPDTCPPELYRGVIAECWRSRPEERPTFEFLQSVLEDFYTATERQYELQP

[41] = target: TEC (human) (UniProt P42680)
[42] = target: HIPK4 (human) (UniProt Q8NE63)

Chain of CDK4 CCND3 (human) (P11802 whole entry, looked up): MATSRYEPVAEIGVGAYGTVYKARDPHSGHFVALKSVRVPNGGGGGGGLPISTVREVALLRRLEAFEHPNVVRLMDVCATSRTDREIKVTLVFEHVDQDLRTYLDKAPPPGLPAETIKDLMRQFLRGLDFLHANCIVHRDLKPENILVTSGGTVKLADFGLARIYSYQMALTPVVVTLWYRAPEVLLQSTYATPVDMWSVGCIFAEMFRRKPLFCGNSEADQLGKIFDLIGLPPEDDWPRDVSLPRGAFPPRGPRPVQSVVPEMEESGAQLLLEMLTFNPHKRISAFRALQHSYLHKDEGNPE
Chain of CDK4 CCND3 (human) (P30281 whole entry, looked up): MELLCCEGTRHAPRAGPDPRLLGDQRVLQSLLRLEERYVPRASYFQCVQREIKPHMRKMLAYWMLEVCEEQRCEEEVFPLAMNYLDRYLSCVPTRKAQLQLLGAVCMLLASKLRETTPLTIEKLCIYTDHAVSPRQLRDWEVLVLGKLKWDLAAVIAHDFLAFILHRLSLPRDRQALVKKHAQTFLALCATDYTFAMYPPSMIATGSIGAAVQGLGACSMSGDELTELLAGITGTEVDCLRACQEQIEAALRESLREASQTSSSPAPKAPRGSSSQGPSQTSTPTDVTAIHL

## COc1ccc(C(=O)Nc2sc3c(c2C(N)=O)CCCC3)cc1OC
[1]
  residual activity: 94.3%
[2]
  residual activity: 42%
[3]
  residual activity: 98.8%
[4]
  residual activity: 46%
[5]
  residual activity: 101%
[6]
  residual activity: 96.2%
[7]
  residual activity: 96.3%
[8]
  residual activity: 99.7%
[9]
  residual activity: 99.9%
[10]
  residual activity: 97.2%
[11]
  residual activity: 91.7%
[12]
  residual activity: 101%
[13]
  residual activity: 100%
[14]
  residual activity: 98.5%
[15]
  residual activity: 118%
[16]
  residual activity: 94.4%
[17]
  residual activity: 95%
[18]
  residual activity: 97.5%
[19]
  residual activity: 93.2%
[20]
  residual activity: 96.6%
[21]
  residual activity: 99.7%
[22]
  residual activity: 98.9%
[23]
  residual activity: 103%
[24]
  residual activity: 98.6%
[25]
  residual activity: 92.3%
[26]
  residual activity: 117%
[27]
  residual activity: 98.2%
[28]
  residual activity: 85.4%
[29]
  residual activity: 76.5%
[30]
  residual activity: 94.6%
[31]
  residual activity: 100%
[32]
  residual activity: 86.5%
[33]
  residual activity: 105%
[34]
  residual activity: 93.9%
[35]
  residual activity: 94%
[36]
  residual activity: 104%
[37]
  residual activity: 78.2%
[38]
  residual activity: 78.2%
[39]
  residual activity: 102%
[40]
  residual activity: 102%
[41]
  residual activity: 115%
[42]
  residual activity: 103%

## O=C1Nc2ccc(Br)cc2/C1=C\c1cc2c([nH]1)CCCC2
[1]
  residual activity: 60.2%
[2]
  residual activity: 3.86%
[3]
  residual activity: 99.8%
[4]
  residual activity: 75.6%
[5]
  residual activity: 102%
[6]
  residual activity: 56.7%
[7]
  residual activity: 91.7%
[8]
  residual activity: 99.8%
[9]
  residual activity: 93.6%
[10]
  residual activity: 84.6%
[11]
  residual activity: 103%
[12]
  residual activity: 53.4%
[13]
  residual activity: 101%
[14]
  residual activity: 102%
[15]
  residual activity: 99.4%
[16]
  residual activity: 78.2%
[17]
  residual activity: 85.5%
[18]
  residual activity: 98.4%
[19]
  residual activity: 85.8%
[20]
  residual activity: 99.8%
[21]
  residual activity: 94.8%
[22]
  residual activity: 101%
[23]
  residual activity: 88.7%
[24]
  residual activity: 98.2%
[25]
  residual activity: 92.8%
[26]
  residual activity: 86%
[27]
  residual activity: 106%
[28]
  residual activity: 81.2%
[29]
  residual activity: 87.2%
[30]
  residual activity: 89.8%
[31]
  residual activity: 88.8%
[32]
  residual activity: 88.6%
[33]
  residual activity: 77%
[34]
  residual activity: 87.5%
[35]
  residual activity: 84.3%
[36]
  residual activity: 106%
[37]
  residual activity: 70.9%
[38]
  residual activity: 111%
[39]
  residual activity: 94.2%
[40]
  residual activity: 74.4%
[41]
  residual activity: 129%
[42]
  residual activity: 104%

## Cc1cncc2cccc(S(=O)(=O)N3CCCN(C(=O)CN)C[C@H]3C)c12
[1]
  residual activity: 65.3%
[2]
  residual activity: 90.1%
[3]
  residual activity: 105%
[4]
  residual activity: 83%
[5]
  residual activity: 99.3%
[6]
  residual activity: 34.9%
[7]
  residual activity: 25.3%
[8]
  residual activity: 104%
[9]
  residual activity: 98%
[10]
  residual activity: 78.4%
[11]
  residual activity: 106%
[12]
  residual activity: 94.4%
[13]
  residual activity: 98%
[14]
  residual activity: 90.3%
[15]
  residual activity: 106%
[16]
  residual activity: 101%
[17]
  residual activity: 88.7%
[18]
  residual activity: 105%
[19]
  residual activity: 88.9%
[20]
  residual activity: 105%
[21]
  residual activity: 103%
[22]
  residual activity: 105%
[23]
  residual activity: 86.5%
[24]
  residual activity: 89%
[25]
  residual activity: 3.22%
[26]
  residual activity: 86.6%
[27]
  residual activity: 90.5%
[28]
  residual activity: 95.4%
[29]
  residual activity: 94.4%
[30]
  residual activity: 99.6%
[31]
  residual activity: 93.6%
[32]
  residual activity: 102%
[33]
  residual activity: 79.5%
[34]
  residual activity: 94.2%
[35]
  residual activity: 100%
[36]
  residual activity: 97.1%
[37]
  residual activity: 99%
[38]
  residual activity: 97.9%
[39]
  residual activity: 82.3%
[40]
  residual activity: 97.7%
[41]
  residual activity: 117%
[42]
  residual activity: 91.1%
